IC50 data for 10 compounds are collected here from US8304434B2, “Substituted aryl sulfone derivatives as calcium channel blockers” (Merck Sharp & Dohme Corp., priority 2007, dated 2012).

T1 sequence (Q00975 whole entry): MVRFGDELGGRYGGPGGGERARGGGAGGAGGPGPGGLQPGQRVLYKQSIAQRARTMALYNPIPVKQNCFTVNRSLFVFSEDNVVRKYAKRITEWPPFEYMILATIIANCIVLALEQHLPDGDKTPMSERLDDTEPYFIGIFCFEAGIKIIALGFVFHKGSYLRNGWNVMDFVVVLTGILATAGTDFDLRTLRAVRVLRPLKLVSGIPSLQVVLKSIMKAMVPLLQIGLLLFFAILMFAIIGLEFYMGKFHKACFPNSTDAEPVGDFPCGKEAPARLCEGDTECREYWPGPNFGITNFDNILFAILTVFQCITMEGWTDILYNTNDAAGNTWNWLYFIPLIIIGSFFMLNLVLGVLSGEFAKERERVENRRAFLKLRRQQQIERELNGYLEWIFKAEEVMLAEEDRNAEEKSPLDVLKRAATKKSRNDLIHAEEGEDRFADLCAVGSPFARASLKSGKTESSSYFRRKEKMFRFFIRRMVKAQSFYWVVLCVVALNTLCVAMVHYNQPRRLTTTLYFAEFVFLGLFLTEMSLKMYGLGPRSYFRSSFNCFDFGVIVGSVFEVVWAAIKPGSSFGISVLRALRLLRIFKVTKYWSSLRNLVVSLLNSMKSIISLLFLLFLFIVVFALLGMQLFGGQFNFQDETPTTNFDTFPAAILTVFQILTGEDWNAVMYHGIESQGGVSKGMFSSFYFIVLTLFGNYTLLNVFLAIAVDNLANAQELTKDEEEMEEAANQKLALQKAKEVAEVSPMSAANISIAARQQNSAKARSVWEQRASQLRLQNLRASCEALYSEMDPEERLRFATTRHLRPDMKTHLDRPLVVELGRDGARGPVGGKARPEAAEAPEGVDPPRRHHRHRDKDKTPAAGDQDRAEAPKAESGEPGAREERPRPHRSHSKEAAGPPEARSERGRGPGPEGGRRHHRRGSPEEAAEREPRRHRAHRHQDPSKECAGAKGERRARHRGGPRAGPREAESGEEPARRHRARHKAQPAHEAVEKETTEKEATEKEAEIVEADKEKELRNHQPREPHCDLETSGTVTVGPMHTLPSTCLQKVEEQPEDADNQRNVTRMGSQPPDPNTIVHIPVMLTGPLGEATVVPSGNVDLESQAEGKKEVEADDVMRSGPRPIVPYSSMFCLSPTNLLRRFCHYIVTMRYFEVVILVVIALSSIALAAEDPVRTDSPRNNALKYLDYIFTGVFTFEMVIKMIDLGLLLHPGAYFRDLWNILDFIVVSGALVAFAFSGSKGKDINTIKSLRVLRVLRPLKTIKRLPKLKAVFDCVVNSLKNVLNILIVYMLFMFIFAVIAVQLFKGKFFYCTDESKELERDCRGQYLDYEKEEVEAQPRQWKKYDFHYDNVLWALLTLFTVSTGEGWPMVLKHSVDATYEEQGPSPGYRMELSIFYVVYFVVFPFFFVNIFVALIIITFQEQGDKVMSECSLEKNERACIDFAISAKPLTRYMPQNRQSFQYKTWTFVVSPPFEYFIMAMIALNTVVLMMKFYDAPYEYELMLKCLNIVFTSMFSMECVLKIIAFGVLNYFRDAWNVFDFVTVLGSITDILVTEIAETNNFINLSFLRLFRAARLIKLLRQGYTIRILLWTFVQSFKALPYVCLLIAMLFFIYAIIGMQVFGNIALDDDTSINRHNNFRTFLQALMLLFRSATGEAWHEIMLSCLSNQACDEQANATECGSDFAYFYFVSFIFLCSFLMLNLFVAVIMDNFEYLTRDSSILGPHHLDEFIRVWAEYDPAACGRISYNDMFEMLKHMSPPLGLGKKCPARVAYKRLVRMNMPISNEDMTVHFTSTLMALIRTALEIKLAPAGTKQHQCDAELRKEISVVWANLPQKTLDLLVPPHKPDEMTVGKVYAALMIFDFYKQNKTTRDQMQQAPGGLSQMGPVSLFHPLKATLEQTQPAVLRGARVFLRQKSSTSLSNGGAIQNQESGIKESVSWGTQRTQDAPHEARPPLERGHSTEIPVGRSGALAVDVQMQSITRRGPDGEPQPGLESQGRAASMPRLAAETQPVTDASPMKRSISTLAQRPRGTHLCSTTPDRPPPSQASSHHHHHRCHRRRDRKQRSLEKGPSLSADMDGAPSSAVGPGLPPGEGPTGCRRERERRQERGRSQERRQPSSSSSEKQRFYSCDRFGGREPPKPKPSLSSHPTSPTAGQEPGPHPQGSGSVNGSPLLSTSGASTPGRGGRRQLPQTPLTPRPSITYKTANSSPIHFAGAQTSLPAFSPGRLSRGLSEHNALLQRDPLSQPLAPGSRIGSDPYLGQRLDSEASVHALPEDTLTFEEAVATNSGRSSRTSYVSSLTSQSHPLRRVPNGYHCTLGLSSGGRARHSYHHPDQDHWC

The test has as its target T1, Human Cav2.2 channels (Homo sapiens, UniProt Q00975).
T1 construct: expressed in transfected cells; also expresses Kir2.3)
Description: Fluorescent assay for Cav2.2 channels using potassium depolarization to initiate channel opening (Assay Example 1). The format is cell-based. Conditions: Assay Example 1, HEK293 cells expressing human Cav2.2; pre-incubation potassium concentration not stated. The text has this: Human Cav2.2 channels were stably expressed in HEK293 cells along with alpha2-delta and beta subunits of voltage-gated calcium channels. An inwardly rectifying potassium channel (Kir2.3) was also expressed in these cells to allow more precise control of the cell membrane potential by extracellular potassium concentration. At low bath potassium concentration, the membrane potential is relatively negative, and is depolarized as the bath potassium concentration is raised. In this way, the bath potassium concentration can be used to regulate the voltage-dependent conformations of the channels. Compounds are incubated with cells in the presence of low (4 mM) potassium or elevated (12, 25 or 30 mM) potassium to determine the affinity for compound block of resting (closed) channels at 4 mM potassium or affinity for block of open and inactivated channels at 12, 25 or 30 mM potassium. After the incubation period, Cav2.2 channel opening is triggered by addition of higher concentration of potassium (70 mM final concentration) to further depolarize the cell. The degree of state-dependent block can be estimated from the inhibitory potency of compounds after incubation in different potassium concentrations.
Calcium influx through Cav2.2 channels is determined using a calcium-sensitive fluorescent dye in combination with a fluorescent plate reader. Fluorescent changes were measured with either a VIPR (Aurora Instruments) or FLIPR (Molecular Devices) plate reader.
• 1. Seed cells in Poly-D-Lysine Coated 96- or 384-well plate and keep in a 37° C.-10% CO2 incubator overnight • 2. Remove media^1, wash cells with 0.2 ml (96-well plate) or 0.05 ml (384-well plate) Dulbecco's Phosphate Buffered Saline (D-PBS) with calcium & magnesium (Invitrogen; 14040) • 3. Add 0.1 ml (96-well plate) or 0.05 ml (384-well plate) of 4 μM fluo-4 (Molecular Probes; F-14202) and 0.02% Pluronic acid (Molecular Probes; P-3000) prepared in D-PBS with calcium & magnesium (Invitrogen; 14040) supplemented with 10 mM Glucose & 10 mM Hepes/NaOH; pH 7.4 • 4. Incubate in the dark at 25° C. for 60-70 min • 5. Remove dye^2, wash cells with 0.1 ml (96-well plate) or 0.06 ml (384-well plate) of 4, 12, 25, or 30 mM Potassium Pre-polarization Buffer. (PPB) • 6. Add 0.1 ml (96-well plate) or 0.03 ml (384-well plate) of 4, 12, 25, 30 mM PPB, with or without test compound • 7. Incubate in the dark at 25° C. for 30 min • 8. Read cell plate on VIPR instrument, Excitation=480 nm, Emission=535 nm • 9. With VIPR continuously reading, add 0.1 ml (96-well plate) or 0.03 ml (384-well plate) of Depolarization Buffer, which is 2× the final assay concentration, to the cell plate.
For the compound `CC(C)(C1CCN(C(=O)[C@@H](N)Cc2ccccc2)CC1)S(=O)(=O)c1cccc(C(F)(F)F)c1`, the half-inhibitory concentration (IC50) came to 490 nM.

Consider `CC(C)(C1CCN(C(=O)c2c[nH]c(-c3ccccc3)n2)CC1)S(=O)(=O)c1cccc(C(F)(F)F)c1`, for which the IC50 was found to be 1390 nM.

For `CC(C)(C1CCN(C(=O)c2cccc3nccnc23)CC1)S(=O)(=O)c1cccc(C(F)(F)F)c1`, the IC50 came out at 1400 nM.

With `CC(C)(C1CCN(C(=O)C2(N)CCC2)CC1)S(=O)(=O)c1cccc(C(F)(F)F)c1`, the IC50 stood at 1170 nM.

With `CC(C)(C1CCN(C(=O)[C@H](O)Cc2ccccc2)CC1)S(=O)(=O)c1cccc(C(F)(F)F)c1`, the IC50 worked out at 510 nM.

Regarding `CC(C)(C1CCN(C(=O)c2cccc(F)c2)CC1)S(=O)(=O)c1cccc(C(F)(F)F)c1`, the IC50 was found to be 830 nM.

On to `CC(C)(C1CCN(C(=O)C[C@@H](NS(C)(=O)=O)c2ccccc2)CC1)S(=O)(=O)c1cccc(C(F)(F)F)c1`, for which the half-maximal inhibitory concentration (IC50) came to 360 nM.

Take `CC(C)(C)c1ccc(C(=O)N2CCC(C(C)(C)S(=O)(=O)c3cccc(C(F)(F)F)c3)CC2)cc1`: the IC50 turned out to be 490 nM.

With `CC(C)(C1CCN(C(=O)c2ccc(C(F)(F)F)cc2S(C)(=O)=O)CC1)S(=O)(=O)c1cccc(C(F)(F)F)c1`, the IC50 was found to be 150 nM.

With `CC(C)(C1CCN(C(=O)c2nc3ccc(F)cc3[nH]2)CC1)S(=O)(=O)c1cccc(C(F)(F)F)c1`, the IC50 stood at 790 nM.
